Reference: patent US7371766B2, “Curcumin analogs with anti-tumor and anti-angiogenic properties” (Emory University, priority 1999, dated 2008)

Tests used:
[1] = test system: Tissue Factor (TF) production by human melanoma cell line RPMI-7951; test: TF ELISA, RPMI-7951; assay type: cell-based
Experimental: (§1) IMUBIND Tissue Factor ELISA Kit (American Diagnostica Inc, Greenwich, Conn.) was used to determine TF concentration in each sample. The ELISA was carried out according to manufacturer's procedure.

[2] = test system: Vascular Endothelial Growth Factor (VEGF) production by human prostate cancer cell line DU-145; test: VEGF ELISA, DU-145; assay type: cell-based; conditions: for VEGF (% of DMSO): DMSO = 100%
[3] = test system: Vascular Endothelial Growth Factor (VEGF) production by human prostate cancer cell line PC-3; test: VEGF ELISA, PC-3; assay type: cell-based; conditions: for VEGF (% of DMSO): DMSO = 100%
[4] = test system: Tissue Factor (TF) production by human prostate cancer cell line DU-145; test: TF ELISA, DU-145; assay type: cell-based; conditions: 20 μM; for TF (% of DMSO): DMSO = 100%; for TF: mean of triplicate and S.D., DMSO 7699 ± 406
Experimental: (§2) Cells were treated with 1% Triton X-100 in PBS and left overnight at 4° C. overnight to solubilize TF. […] IMUBIND Tissue Factor ELISA Kit (American Diagnostica Inc, Greenwich, Conn.) was used to determine TF concentration in each sample. The ELISA was carried out according to manufacturer's procedure.

[5] = test system: Tissue Factor (TF) production by human prostate cancer cell line PC-3; test: TF ELISA, PC-3; assay type: cell-based; conditions: 20 μM; for TF (% of DMSO): DMSO = 100%; for TF: mean of triplicate and S.D., DMSO 203 ± 6
Experimental: as §2

[6] = test system: Tissue Factor (TF) production by human breast cancer cell line MDA-MB-231; test: TF ELISA, MDA-MB-231; assay type: cell-based
Experimental: as §1

[7] = test system: RPMI 7951; test: Emory Laboratory Cell Screen, Neutral Red, RPMI 7951; assay type: cell-based, human; conditions: Homo sapiens, RPMI 7951, Melanoma, 72 hours, read-out: Median Growth Inhibitory Concentration (GI50)
Experimental: (§3) Human tumor and endothelial cell lines were treated for 72 hours with compounds at a minimum of four concentrations between 0.1 μM-40 μM. Neutral Red assay was used to calculate cell viability.

[8] = test system: MDA-MB-231; test: Emory Laboratory Cell Screen, Neutral Red, MDA-MB-231; assay type: cell-based, human; conditions: Homo sapiens, MDA-MB-231, Breast Cancer, 72 hours, read-out: Median Growth Inhibitory Concentration (GI50)
Experimental: as §3

[9] = test system: MDA-MB-435; test: Emory Laboratory Cell Screen, Neutral Red, MDA-MB-435; assay type: cell-based, human; conditions: Homo sapiens, MDA-MB-435, Breast Cancer, 72 hours, read-out: Median Growth Inhibitory Concentration (GI50)
Experimental: as §3

[10] = test system: HUVECS; test: Emory Laboratory Cell Screen, Neutral Red, HUVECS; assay type: cell-based, human; conditions: Homo sapiens, HUVEC, 72 hours, read-out: Median Growth Inhibitory Concentration (GI50)
Experimental: as §3

[11] = test system: Human tumor and endothelial cell lines; test: Emory Laboratory Cell Screen, mean over cell lines; assay type: cell-based; conditions: Homo sapiens, Endothelial cell; Mean over the Emory cell lines; 72 hours; read-out: Median Growth Inhibitory Concentration (GI50), Mean
Experimental: as §3

[12] = Table 5, 5 μM, DMSO control 7054
[13] = Table 5, 20 μM, DMSO control 7054
[14] = 20 μM, mean of triplicate and S.D., DMSO 18760 ± 2633
[15] = Table 4, 20 μM, mean of triplicate and S.D.
[16] = 20 μM, mean of triplicate and S.D., DMSO 2103 ± 100

Compound | TF ([1]; 5 μM, DMSO = 100) [%] | TF ELISA ([1]; 5 μM, DMSO control 7054) [pg/ml/well] | TF ([1]; 20 μM, DMSO = 100) [%] | TF ELISA ([1]; 20 μM, DMSO control 7054) [pg/ml/well] | TF [1, 12] [pg/mL] | TF [1, 13] [pg/mL] | VEGF (% of DMSO) ([2]; 20 μM) | VEGF [2, 14] [pg/mL] | VEGF ([2]; Table 4, 20 μM, DMSO = 100) [%] | VEGF [2, 15] [pg/mL] | VEGF (% of DMSO) ([3]; 20 μM) | VEGF [3, 16] [pg/mL] | VEGF ([3]; Table 4, 20 μM, DMSO = 100) [%] | VEGF [3, 15] [pg/mL] | TF (% of DMSO) [4] | TF [4] [pg/mL] | TF (% of DMSO) [5] | TF [5] [pg/mL] | GI50 [7] [µM] | GI50 [11] [µM] | other results
COc1cc(/C=C/C(=O)CC(=O)/C=C/c2ccc(O)c(OC)c2)ccc1O [Curcumin] | 126 | 7974 | 15 | 1026 | 8871 | 1026 | (96%) | 17957 ± 1910 | 96 | 17957 ± 1910 | (99%) | 2088 ± 103 | 99 | 2088 ± 103 | (93%) | 7134 ± 301 | (68%) | 138 ± 10 | 6.3 | 14.8 | TF ([6]; 5 μM, DMSO = 100): 100%; TF ([6]; 5 μM, DMSO control 45753): 45814 pg/mL; TF ([6]; 10 μM, DMSO = 100): 98%; TF ([6]; 10 μM, DMSO control 45753): 44727 pg/mL; GI50 [8]: 11.6 µM; GI50 [9]: 16.3 µM; GI50 [10]: 25 µM
O=C1C(=Cc2ccccc2O)CCCC1=Cc1ccccc1O [EF4, 2,6Bis(2-hydroxybenzylidene)cyclohexanone] |  |  |  |  |  |  | (55%) | 10274 ± 4467 | 55 | 10274 ± 4467 | (2%) | 48 ± 83 | 2 | 48 ± 83 | (67%) | 5180 ± 420 | (16%) | 33 ± 7 | 3.6 | 3.6 | 
C(=C\c1ccccc1)/S/C=C/c1ccccc1 [EF15] | 106 | 7506 | 109 | 7663 | 7506 | 7663 |  |  |  |  |  |  |  |  |  |  |  |  |  |  | TF ([6]; 20 μM, DMSO = 100): 101%; TF ([6]; 20 μM, DMSO control 45753): 46394 pg/mL
